Data from the NIST ThermoML archive (doi:10.1021/je200721d).

Test: xn = mol fraction of the nth substance listed
Details: Liquid, Vibrating tube method

CCCCCCCCCC [decane] + CCCCCC
Details | mass density [kg/m3]
342.8 K, 1000 kPa, x2 = 0.8991 | 626.74
342.8 K, 2000 kPa, x2 = 0.8991 | 628.11
342.8 K, 3000 kPa, x2 = 0.8991 | 629.48
342.8 K, 4000 kPa, x2 = 0.8991 | 630.85
342.8 K, 5000 kPa, x2 = 0.8991 | 632.19
342.8 K, 6000 kPa, x2 = 0.8991 | 633.52
342.8 K, 7000 kPa, x2 = 0.8991 | 634.85
342.8 K, 8000 kPa, x2 = 0.8991 | 636.16
342.8 K, 9000 kPa, x2 = 0.8991 | 637.46
342.8 K, 10000 kPa, x2 = 0.8991 | 638.73
342.8 K, 11000 kPa, x2 = 0.8991 | 639.99
342.8 K, 12000 kPa, x2 = 0.8991 | 641.23
342.8 K, 13000 kPa, x2 = 0.8991 | 642.43
342.8 K, 14000 kPa, x2 = 0.8991 | 643.64
342.8 K, 15000 kPa, x2 = 0.8991 | 644.8
342.8 K, 16000 kPa, x2 = 0.8991 | 645.95
342.8 K, 17000 kPa, x2 = 0.8991 | 647.07
342.8 K, 18000 kPa, x2 = 0.8991 | 648.18
342.8 K, 19000 kPa, x2 = 0.8991 | 649.24
342.8 K, 20000 kPa, x2 = 0.8991 | 650.3
342.8 K, 21000 kPa, x2 = 0.8991 | 651.32
342.8 K, 22000 kPa, x2 = 0.8991 | 652.31
342.8 K, 23000 kPa, x2 = 0.8991 | 653.28
342.8 K, 24000 kPa, x2 = 0.8991 | 654.23
342.8 K, 25000 kPa, x2 = 0.8991 | 655.16
343.05 K, 1000 kPa, x2 = 0.0456 | 690.21
343.05 K, 2000 kPa, x2 = 0.0456 | 691.25
343.05 K, 3000 kPa, x2 = 0.0456 | 692.26
343.05 K, 4000 kPa, x2 = 0.0456 | 693.3
343.05 K, 5000 kPa, x2 = 0.0456 | 694.32
343.05 K, 6000 kPa, x2 = 0.0456 | 695.32
343.05 K, 7000 kPa, x2 = 0.0456 | 696.31
343.05 K, 8000 kPa, x2 = 0.0456 | 697.29
343.05 K, 9000 kPa, x2 = 0.0456 | 698.26
343.05 K, 10000 kPa, x2 = 0.0456 | 699.22
343.05 K, 11000 kPa, x2 = 0.0456 | 700.16
343.05 K, 12000 kPa, x2 = 0.0456 | 701.08
343.05 K, 13000 kPa, x2 = 0.0456 | 702
343.05 K, 14000 kPa, x2 = 0.0456 | 702.89
343.05 K, 15000 kPa, x2 = 0.0456 | 703.77
343.05 K, 16000 kPa, x2 = 0.0456 | 704.64
343.05 K, 17000 kPa, x2 = 0.0456 | 705.5
343.05 K, 18000 kPa, x2 = 0.0456 | 706.36
343.05 K, 19000 kPa, x2 = 0.0456 | 707.2
343.05 K, 20000 kPa, x2 = 0.0456 | 708.02
343.05 K, 21000 kPa, x2 = 0.0456 | 708.84
343.05 K, 22000 kPa, x2 = 0.0456 | 709.65
343.05 K, 23000 kPa, x2 = 0.0456 | 710.45
343.05 K, 24000 kPa, x2 = 0.0456 | 711.25
343.05 K, 25000 kPa, x2 = 0.0456 | 712.03
343.06 K, 1000 kPa, x2 = 0.2185 | 681.09
343.06 K, 1000 kPa, x2 = 0.7524 | 641.66
343.06 K, 2000 kPa, x2 = 0.2185 | 682.19
343.06 K, 2000 kPa, x2 = 0.7524 | 643.07
343.06 K, 3000 kPa, x2 = 0.2185 | 683.33
343.06 K, 3000 kPa, x2 = 0.7524 | 644.43
343.06 K, 4000 kPa, x2 = 0.2185 | 684.4
343.06 K, 4000 kPa, x2 = 0.7524 | 645.8
343.06 K, 5000 kPa, x2 = 0.2185 | 685.47
343.06 K, 5000 kPa, x2 = 0.7524 | 647.1
343.06 K, 6000 kPa, x2 = 0.2185 | 686.52
343.06 K, 6000 kPa, x2 = 0.7524 | 648.4
343.06 K, 7000 kPa, x2 = 0.2185 | 687.54
343.06 K, 7000 kPa, x2 = 0.7524 | 649.65
343.06 K, 8000 kPa, x2 = 0.2185 | 688.57
343.06 K, 8000 kPa, x2 = 0.7524 | 650.88
343.06 K, 9000 kPa, x2 = 0.2185 | 689.57
343.06 K, 9000 kPa, x2 = 0.7524 | 652.12
343.06 K, 10000 kPa, x2 = 0.2185 | 690.55
343.06 K, 10000 kPa, x2 = 0.7524 | 653.31
343.06 K, 11000 kPa, x2 = 0.2185 | 691.53
343.06 K, 11000 kPa, x2 = 0.7524 | 654.46
343.06 K, 12000 kPa, x2 = 0.2185 | 692.48
343.06 K, 12000 kPa, x2 = 0.7524 | 655.59
343.06 K, 13000 kPa, x2 = 0.2185 | 693.45
343.06 K, 13000 kPa, x2 = 0.7524 | 656.72
343.06 K, 14000 kPa, x2 = 0.2185 | 694.36
343.06 K, 14000 kPa, x2 = 0.7524 | 657.81
343.06 K, 15000 kPa, x2 = 0.2185 | 695.27
343.06 K, 15000 kPa, x2 = 0.7524 | 658.89
343.06 K, 16000 kPa, x2 = 0.2185 | 696.19
343.06 K, 16000 kPa, x2 = 0.7524 | 659.96
343.06 K, 17000 kPa, x2 = 0.2185 | 697.07
343.06 K, 17000 kPa, x2 = 0.7524 | 661
343.06 K, 18000 kPa, x2 = 0.2185 | 697.94
343.06 K, 18000 kPa, x2 = 0.7524 | 662.03
343.06 K, 19000 kPa, x2 = 0.2185 | 698.83
343.06 K, 19000 kPa, x2 = 0.7524 | 663.03
343.06 K, 20000 kPa, x2 = 0.2185 | 699.68
343.06 K, 20000 kPa, x2 = 0.7524 | 664.01
343.06 K, 21000 kPa, x2 = 0.2185 | 700.53
343.06 K, 21000 kPa, x2 = 0.7524 | 664.97
343.06 K, 22000 kPa, x2 = 0.2185 | 701.36
